# From US11548901B2, “Substituted 1,4-methanopyrido[1′,2′:4,5]pyrazino[1,2-a]pyrimidines for treating viral infections” (Gilead Sciences, Inc., priority 2012, dated 2023)
# System: HIV-IIIb
# Experiment: Antiviral assay in MT4 cells
# Format: cell-based
# Settings: Human immunodeficiency virus 1, IIIB, MT4, 120 h, read-out: EC50 nM in MT-4
# Protocol: For the antiviral assay utilizing MT4 cells, 0.4 μL of […] test concentration of 3-fold serially diluted compound in DMSO was added to 40 μL of cell growth medium (RPMI 1640, 10% FBS, 1% penicilline/Streptomycine, 1% L-Glutamine, 1% HEPES) in each well of 384-well assay plates (10 concentrations) in quidruplicate.
# 1 mL aliquots of 2×10^6 MT4 cells are pre-infected for 1 and 3 hours respectively at 37° C. with 25 μL (MT4) or of either cell growth medium (mock-infected) or a fresh 1:250 dilution of an HIV-IIIb concentrated ABI stock (0.004 m.o.i. for MT4 cells). Infected and uninfected cells are diluted in cell growth medium and 35 μL of 2000 (for MT4) cells is added to each well of the assay plates.
# Assay plates were then incubated in a 37° C. incubator. […] Cell lysis was carried out by incubating at room temperature for 2-3 minutes, and then chemiluminescence was read using the Envision reader (PerkinElmer).
smiles,measurement,value
"CC1CC2CC1OC1Cn3cc(C(=O)NCc4ccc(F)cc4F)c(=O)c(O)c3C(=O)N21 (single isomer, unassigned) [Compound 40]",EC50,2.4 nM
